{"source": "patent US20090143279A1", "about": "(priority 2007, published 2009)", "key": {"nuOXPHOS transcripts": {"test_system": "nuOXPHOS transcripts", "type": "cell-based, mouse"}, "mtOXPHOS transcripts": {"test_system": "mtOXPHOS transcripts", "type": "cell-based, mouse"}, "reactive oxygen species": {"test_system": "reactive oxygen species", "type": "cell-based, mouse"}, "[1]": {"test_system": "mitochondrial membrane potential", "type": "cell-based, mouse"}, "OXPHOS gene expression": {"test_system": "OXPHOS gene expression", "type": "cell-based, mouse"}, "cytochrome c": {"test_system": "cytochrome c", "sequence (P62897 whole entry)": "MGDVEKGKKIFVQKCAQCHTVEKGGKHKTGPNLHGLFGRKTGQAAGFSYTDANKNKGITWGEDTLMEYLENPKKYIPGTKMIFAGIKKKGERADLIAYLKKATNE", "type": "cell-based, mouse"}, "[2]": {"test_system": "cellular dehydrogenase activity"}, "[3]": {"conditions": "20 μM, composite Z-score vs DMSO"}, "[4]": {"conditions": "composite Z-score vs mock-treated (DMSO) wells, Conc 20 μM"}, "[5]": {"conditions": "composite Z-score vs DMSO, Conc 20.18 μM"}, "[6]": {"conditions": "normalized composite Z-score vs mock-treated (DMSO) wells, Conc 20 μM"}, "[7]": {"conditions": "composite Z-score vs DMSO, Conc 20 μM"}, "[8]": {"conditions": "composite Z-score vs DMSO wells, Conc 20 μM"}}, "note": "Like-named read-outs stand apart in the source and are kept apart here."}
{"molecule": "Fc1ccc(C(c2ccccc2)(c2ccccc2F)n2ccnc2)cc1", "note": "(stereo not shown) [flutrimazole]", "values": [{"measurement": "Viability", "setting": "C2C12 myotubes; [3]", "result": 0.858}, {"measurement": "nucOX", "setting": "nuOXPHOS transcripts; [3]", "result": "−0.592"}, {"measurement": "mitoOX", "setting": "mtOXPHOS transcripts; [3]", "result": "−0.915"}, {"measurement": "ROS", "setting": "reactive oxygen species; [3]", "result": 0.781}, {"measurement": "ΔΨm", "setting": "[1]; [3]", "result": "−0.429"}, {"measurement": "GE-HTS", "setting": "OXPHOS gene expression; [3]", "result": "−0.763"}, {"measurement": "cyt c", "setting": "cytochrome c; [3]", "result": 0.904}, {"measurement": "MTT", "setting": "[2]; [3]", "result": "−0.356"}]}
{"molecule": "3-deoxo-3beta-acetoxydeoxydihydrogedunin", "values": [{"measurement": "Viability", "setting": "C2C12 myotubes; [4]", "result": 1.066}, {"measurement": "nucOX", "setting": "nuOXPHOS transcripts; [4]", "result": "−0.791"}, {"measurement": "mitoOX", "setting": "mtOXPHOS transcripts; [4]", "result": "−0.559"}, {"measurement": "ROS", "setting": "reactive oxygen species; [4]", "result": 1.249}, {"measurement": "ΔΨm", "setting": "[1]; [4]", "result": 1.215}, {"measurement": "GE-HTS", "setting": "OXPHOS gene expression; [4]", "result": "−0.742"}, {"measurement": "cyt c", "setting": "cytochrome c; [4]", "result": 0.398}, {"measurement": "MTT", "setting": "[2]; [4]", "result": "−1.633"}]}
{"molecule": "NC(=O)N/N=C/c1ccc([N+](=O)[O-])o1", "note": "[nitrofural]", "values": [{"measurement": "Viability", "setting": "C2C12 myotubes; [5]", "result": 0.584}, {"measurement": "nucOX", "setting": "nuOXPHOS transcripts; [5]", "result": "−0.010"}, {"measurement": "mitoOX", "setting": "mtOXPHOS transcripts; [5]", "result": "−0.750"}, {"measurement": "ROS", "setting": "reactive oxygen species; [5]", "result": 0.446}, {"measurement": "ΔΨm", "setting": "[1]; [5]", "result": "−0.518"}, {"measurement": "GE-HTS", "setting": "OXPHOS gene expression; [5]", "result": "−0.260"}, {"measurement": "cyt c", "setting": "cytochrome c; [5]", "result": 0.342}, {"measurement": "MTT", "setting": "[2]; [5]", "result": "−0.852"}]}
{"molecule": "CC1(C)OC(=O)C=CC2(C)C1CC(O)C1(C)C2CCC2(C)C(c3ccoc3)OC(=O)C3OC321", "note": "(stereo not shown) [obacunol]", "values": [{"measurement": "Viability", "setting": "C2C12 myotubes; [4]", "result": 2.016}, {"measurement": "nucOX", "setting": "nuOXPHOS transcripts; [4]", "result": "−0.927"}, {"measurement": "mitoOX", "setting": "mtOXPHOS transcripts; [4]", "result": "−0.734"}, {"measurement": "ROS", "setting": "reactive oxygen species; [4]", "result": "−0.134"}, {"measurement": "ΔΨm", "setting": "[1]; [4]", "result": 0.464}, {"measurement": "GE-HTS", "setting": "OXPHOS gene expression; [4]", "result": "−0.906"}, {"measurement": "cyt c", "setting": "cytochrome c; [4]", "result": 0.859}, {"measurement": "MTT", "setting": "[2]; [4]", "result": "−0.982"}]}
{"molecule": "Cc1occc(=O)c1/C=C/O", "note": "[2-methyl-3-hydroxyethylenepyran-4-one]", "values": [{"measurement": "Viability", "setting": "C2C12 myotubes; [6]", "result": 0.309}, {"measurement": "nucOX", "setting": "nuOXPHOS transcripts; [6]", "result": "−0.012"}, {"measurement": "mitoOX", "setting": "mtOXPHOS transcripts; [6]", "result": "−0.305"}, {"measurement": "ROS", "setting": "reactive oxygen species; [6]", "result": 0.234}, {"measurement": "ΔΨm", "setting": "[1]; [6]", "result": "−0.608"}, {"measurement": "GE-HTS", "setting": "OXPHOS gene expression; [6]", "result": "−0.128"}, {"measurement": "cyt c", "setting": "cytochrome c; [6]", "result": "−0.244"}, {"measurement": "MTT", "setting": "[2]; [6]", "result": "−0.725"}]}
{"molecule": "C[C@@H]([C@H]1OC(C)(C)[C@@H](O)[C@H]1O)[C@@H]1CC[C@]2(C)C3=CC[C@H]4C(C)(C)C(=O)CC[C@]4(C)[C@H]3CC[C@@]12C", "note": "[odoratone]", "values": [{"measurement": "Viability", "setting": "C2C12 myotubes; [4]", "result": 0.542}, {"measurement": "nucOX", "setting": "nuOXPHOS transcripts; [4]", "result": "−0.988"}, {"measurement": "mitoOX", "setting": "mtOXPHOS transcripts; [4]", "result": "−0.873"}, {"measurement": "ROS", "setting": "reactive oxygen species; [4]", "result": 0.083}, {"measurement": "ΔΨm", "setting": "[1]; [4]", "result": 0.367}, {"measurement": "GE-HTS", "setting": "OXPHOS gene expression; [4]", "result": "−0.994"}, {"measurement": "cyt c", "setting": "cytochrome c; [4]", "result": 0.707}, {"measurement": "MTT", "setting": "[2]; [4]", "result": "−1.060"}]}
{"molecule": "CC[C@@]1(O)C[C@H](O)c2c(cc3c(c2O)C(=O)c2c(O)ccc(O)c2C3=O)[C@H]1C(=O)OC", "note": "[rutilantinone]", "values": [{"measurement": "Viability", "setting": "C2C12 myotubes; [7]", "result": 0.192}, {"measurement": "nucOX", "setting": "nuOXPHOS transcripts; [7]", "result": "−1.152"}, {"measurement": "mitoOX", "setting": "mtOXPHOS transcripts; [7]", "result": "−3.039"}, {"measurement": "ROS", "setting": "reactive oxygen species; [7]", "result": 2.445}, {"measurement": "ΔΨm", "setting": "[1]; [7]", "result": "−3.758"}, {"measurement": "GE-HTS", "setting": "OXPHOS gene expression; [7]", "result": "−1.917"}, {"measurement": "cyt c", "setting": "cytochrome c; [7]", "result": 0.372}, {"measurement": "MTT", "setting": "[2]; [7]", "result": "−2.979"}]}
{"molecule": "CCCCCC1C(=O)CCC1CC(=O)OC", "note": "(stereo not shown) [dihydrojasmonic acid, methyl ester]", "values": [{"measurement": "Viability", "setting": "C2C12 myotubes; [7]", "result": 0.971}, {"measurement": "nucOX", "setting": "nuOXPHOS transcripts; [7]", "result": 0.831}, {"measurement": "mitoOX", "setting": "mtOXPHOS transcripts; [7]", "result": 1.068}, {"measurement": "ROS", "setting": "reactive oxygen species; [7]", "result": "−0.386"}, {"measurement": "ΔΨm", "setting": "[1]; [7]", "result": "−0.204"}, {"measurement": "GE-HTS", "setting": "OXPHOS gene expression; [7]", "result": 0.948}, {"measurement": "cyt c", "setting": "cytochrome c; [7]", "result": "−0.281"}, {"measurement": "MTT", "setting": "[2]; [7]", "result": "−0.452"}]}
{"molecule": "COC(=O)[C@@H]1OC(=O)C2OC23[C@@]1(C)CCC1[C@]2(C)C(C[C@@H](O)[C@]13C)C(C)(C)[C@H](OC(C)=O)C[C@@H]2OC(C)=O", "note": "(stereo partly shown)", "values": [{"measurement": "Viability", "setting": "C2C12 myotubes; [4]", "result": 0.474}, {"measurement": "nucOX", "setting": "nuOXPHOS transcripts; [4]", "result": "−0.485"}, {"measurement": "mitoOX", "setting": "mtOXPHOS transcripts; [4]", "result": "−0.039"}, {"measurement": "ROS", "setting": "reactive oxygen species; [4]", "result": 0.177}, {"measurement": "ΔΨm", "setting": "[1]; [4]", "result": "−0.579"}, {"measurement": "GE-HTS", "setting": "OXPHOS gene expression; [4]", "result": "−0.376"}, {"measurement": "cyt c", "setting": "cytochrome c; [4]", "result": 1.004}, {"measurement": "MTT", "setting": "[2]; [4]", "result": "−0.427"}]}
{"molecule": "C=C1CCC(C2CC(=O)OC2=O)C(=O)CCC2C1CC2(C)C", "note": "(stereo not shown)", "values": [{"measurement": "Viability", "setting": "C2C12 myotubes; [6]", "result": "−0.749"}, {"measurement": "nucOX", "setting": "nuOXPHOS transcripts; [6]", "result": "−1.009"}, {"measurement": "mitoOX", "setting": "mtOXPHOS transcripts; [6]", "result": "−1.046"}, {"measurement": "ROS", "setting": "reactive oxygen species; [6]", "result": 0.012}, {"measurement": "ΔΨm", "setting": "[1]; [6]", "result": "−0.249"}, {"measurement": "GE-HTS", "setting": "OXPHOS gene expression; [6]", "result": "−1.109"}, {"measurement": "cyt c", "setting": "cytochrome c; [6]", "result": 0.345}, {"measurement": "MTT", "setting": "[2]; [6]", "result": "−0.968"}]}
{"molecule": "NC[C@@H]1O[C@H](O[C@H]2[C@@H](O)[C@H](O[C@@H]3[C@@H](O)[C@H](N)C[C@H](N)[C@H]3O[C@H]3O[C@H](CN)[C@@H](O)[C@H](O)[C@H]3N)O[C@@H]2CO)[C@H](N)[C@@H](O)[C@@H]1O", "note": "[neomycin]", "values": [{"measurement": "Viability", "setting": "C2C12 myotubes; [7]", "result": "−1.255"}, {"measurement": "nucOX", "setting": "nuOXPHOS transcripts; [7]", "result": 0.598}, {"measurement": "mitoOX", "setting": "mtOXPHOS transcripts; [7]", "result": 1.160}, {"measurement": "ROS", "setting": "reactive oxygen species; [7]", "result": 1.203}, {"measurement": "ΔΨm", "setting": "[1]; [7]", "result": "−0.599"}, {"measurement": "GE-HTS", "setting": "OXPHOS gene expression; [7]", "result": 0.817}, {"measurement": "cyt c", "setting": "cytochrome c; [7]", "result": 0.734}, {"measurement": "MTT", "setting": "[2]; [7]", "result": "−1.478"}]}
{"molecule": "Cc1c(N(C)CS(=O)(=O)[O-])c(=O)n(-c2ccccc2)n1C.[Na+]", "note": "[dipyrone]", "values": [{"measurement": "Viability", "setting": "C2C12 myotubes", "result": "−0.607"}, {"measurement": "Viability", "setting": "C2C12 myotubes; [8]", "result": "−0.809"}, {"measurement": "nucOX", "setting": "nuOXPHOS transcripts; [8]", "result": "−0.930"}, {"measurement": "mitoOX", "setting": "mtOXPHOS transcripts; [8]", "result": "−0.820"}, {"measurement": "ROS", "setting": "reactive oxygen species", "result": "−0.683"}, {"measurement": "ROS", "setting": "reactive oxygen species; [8]", "result": "−1.148"}, {"measurement": "ΔΨm", "setting": "[1]", "result": "−0.738"}, {"measurement": "ΔΨm", "setting": "[1]; [8]", "result": "−0.760"}, {"measurement": "GE-HTS", "setting": "OXPHOS gene expression; [8]", "result": "−0.955"}, {"measurement": "cyt c", "setting": "cytochrome c", "result": 0.356}, {"measurement": "cyt c", "setting": "cytochrome c; [8]", "result": 0.337}, {"measurement": "MTT", "setting": "[2]", "result": "−1.243"}, {"measurement": "MTT", "setting": "[2]; [8]", "result": "−1.908"}]}
{"molecule": "C/C1=C\\CC/C(C)=C/CC(C)(C)/C=C/C1", "note": "[humulene]", "values": [{"measurement": "Viability", "setting": "C2C12 myotubes; [6]", "result": "−0.070"}, {"measurement": "nucOX", "setting": "nuOXPHOS transcripts; [6]", "result": "−0.188"}, {"measurement": "mitoOX", "setting": "mtOXPHOS transcripts; [6]", "result": 0.060}, {"measurement": "ROS", "setting": "reactive oxygen species; [6]", "result": 0.679}, {"measurement": "ΔΨm", "setting": "[1]; [6]", "result": "−0.232"}, {"measurement": "GE-HTS", "setting": "OXPHOS gene expression; [6]", "result": "−0.096"}, {"measurement": "cyt c", "setting": "cytochrome c; [6]", "result": "−0.100"}, {"measurement": "MTT", "setting": "[2]; [6]", "result": "−1.208"}]}
